Consider 40 molecules from US7399775B2, “β-amyloid protein production/secretion inhibitor” (Daiichi Pharmaceutical Co., Ltd., priority 2001, dated 2008).

The molecule `CS(=O)(=O)CCCCC(c1c(F)cccc1F)S(=O)(=O)c1ccc(Cl)cc1` (stereo not shown) [Example 81, 2-[1-(4-Chlorophenylsulfonyl)-5-(methylsulfonyl)pentyl]-1,3-difluorobenzene] displayed a melting point of 118 to 119 °C.
`O=S(=O)(c1ccc(Cl)cc1)C(Cc1ccccc1)c1cc(F)ccc1F` (stereo not shown) [Example 217, 2-[1-[(4-Chlorophenyl)sulfonyl]-2-phenylethyl]-1,4-difluorobenzene]: the melting point lay in the range of 160 to 161 °C.
Regarding `O=S(=O)(c1ccc(Cl)cc1)C(CCCCF)c1cc(F)ccc1F` (stereo not shown) [Example 231, 2-[1-(4-Chlorophenylsulfonyl)-5-fluoropentyl]-1,4-difluorobenzene], the melting point lay within 77 to 78 °C.
Then `CSCCCCC(c1cc(F)ccc1F)S(=O)(=O)c1ccc(Cl)cc1` (stereo not shown) [Example 26, 2-[1-[(4-Chlorophenyl)sulfonyl]-5-(methylthio)pentyl]-1,4-difluorobenzene], with 103 to 106 °C.
Then `NC(=O)OCCC(c1cc(F)ccc1F)S(=O)(=O)c1ccc(Cl)cc1` (stereo not shown) [Example 214, 3-[(4-Chlorophenyl)sulfonyl]-3-(2,5-difluorophenyl)propyl=carbamate], with 139 to 140 °C; and `CS(=O)(=O)CCCCC(C1CCCCC1)S(=O)(=O)c1ccc(Cl)cc1` (stereo not shown) [Example 95, 1-Chloro-4-[1-cyclohexyl-5-(methylsulfonyl)pentylsulfonyl]benzene], with 104 to 106 °C.
Regarding `CCCCC(c1ccncc1)S(=O)(=O)c1ccc(Cl)cc1` (stereo not shown) [Example 120, 4-[1-(4-Chlorophenylsulfonyl)pentyl]pyridine], the melting point was 109 to 111 °C.
With `O=C(CC(c1cc(F)ccc1F)S(=O)(=O)c1ccc(Cl)cc1)N1CCCC1` (stereo not shown) [Example 198, 3-[(4-Chlorophenyl)sulfonyl]-3-(2,5-difluorophenyl)-1-(1-pyrrolildinyl)-1-propanone] the figure was 122 to 125 °C; with `Cc1ccc(S(=O)(=O)NCC(=O)NCc2ccc(C(c3cc(F)ccc3F)S(=O)(=O)c3ccc(Cl)cc3)nc2)cc1` (stereo not shown) [Example 358, N-[[6-[(4-Chlorophenylsulfonyl)(2,5-difluorophenyl)methyl]pyridin-3-yl]methyl]-2-(4-methylphenylsulfonylamino)acetamide], 217 to 218 °C; with `CS(=O)(=O)CCCCC(c1cncs1)S(=O)(=O)c1ccc(Cl)cc1` (stereo not shown) [Example 114, 5-[1-[(4-Chlorophenyl)sulfonyl]-5-(methylsulfonyl)pentyl]thiazole], 95 to 96 °C.
Take `CCOC(=O)C(=O)NCc1ccc(C(c2cc(F)ccc2F)S(=O)(=O)c2ccc(Cl)cc2)nc1` (stereo not shown) [Example 357, Ethyl 2-[[6-[(4-chlorophenylsulfonyl)(2,5-difluorophenyl)methyl]pyridin-3-yl]methylamino]-2-oxoacetate]: the melting point lay in the range of 193 to 194 °C.
With `CS(=O)(=O)CCCCC(c1cccc(Cl)c1F)S(=O)(=O)c1ccc(Cl)cc1` (stereo not shown) [Example 78, 1-Chloro-3-[1-(4-chlorophenylsulfonyl)-5-(methylsulfonyl)pentyl]-2-fluorobenzene] the figure was 131 to 132 °C; with `C=COCCCCC(c1cc(F)ccc1F)S(=O)(=O)c1ccc(Cl)cc1` (stereo not shown) [Example 28, 2-[1-[(4-Chlorophenyl)sulfonyl]-5-vinyloxypentyl]-1,4-difluorobenzene], 54 to 56 °C.
Regarding `O=S(=O)(c1ccc(Cl)cc1)C(Sc1ccccc1)c1cc(F)ccc1F` (stereo not shown) [Example 57, 2-[1-[(4-Chlorophenyl)sulfonyl]-1-phenylthio]methyl-1,4-difluorobenzene], the melting point lay in the range of 84 to 85 °C.
Then `O=C(CC(c1cc(F)ccc1F)S(=O)(=O)c1ccc(Cl)cc1)OCc1ccccc1` (stereo not shown) [Example 59, Benzyl 3-(4-chlorophenylsulfonyl)-3-(2,5-difluorophenyl)propionate], with 127 to 128 °C.
Turning to `CC(CCCO)C(c1cc(F)ccc1F)S(=O)(=O)c1ccc(Cl)cc1` (stereo not shown) [Example 39, 5-[(4-Chlorophenyl)sulfonyl]-5-(2,5-difluorophenyl)-4-methyl-1-pentanol], the melting point was 84 to 86 °C.
Then `O=S(=O)(c1ccc(Cl)cc1)C1(c2nnn(Cc3ccccc3)n2)CCCCC1` [Example 197, 2-Benzyl-5-[1-(4-chlorobenzenesulfonyl)cyclohexyl]-2H-tetrazole], with 133 to 134 °C; and `CCOC(=O)CC(c1cc(F)ccc1F)S(=O)(=O)c1ccc(Cl)cc1` (stereo not shown) [Example 25, Ethyl 3-[(4-chlorophenyl)sulfonyl]-3-(2,5-difluorophenyl)propionate], with 99.5 to 100.5 °C; and `CS(=O)(=O)CCCCC(c1ccc2ccccc2c1)S(=O)(=O)c1ccc(Cl)cc1` (stereo not shown) [Example 67, 2-[1-[(4-Chlorophenyl)sulfonyl]-5-(methylsulfonyl)pentyl]naphthalene], with 146 to 147 °C.
Molecule `O=C(OC(=C(c1cc(F)ccc1F)S(=O)(=O)c1ccc(Cl)cc1)c1ccccc1)c1ccccc1` [Example 9, 2-[(4-Chlorophenyl)sulfonyl]-2-(2,5-difluorophenyl)-1-phenylethenyl benzoate] registered a melting point of 224.5 to 227 °C.
Take `O=S(=O)(c1ccc(Cl)cc1)C(c1ccc(CN2CCOCC2)cn1)c1cc(F)ccc1F` (stereo not shown) [Example 337, 4-[[6-[(4-Chlorophenylsulfonyl)-(2,5-difluorophenyl)methyl]pyridin-3-yl]methyl]morpholine]: the melting point fell in the range of 120 to 121 °C.
On to `COc1cccnc1C(c1cc(F)ccc1F)S(=O)(=O)c1ccc(Cl)cc1` (stereo not shown) [Example 139, 2-[[(4-Chlorophenyl)sulfonyl]-(2,5-difluorophenyl)methyl]-3-methoxypyridine], for which the melting point fell in the range of 184 to 185 °C.
Then `O=S(=O)(c1ccc(Cl)cc1)C(CCn1cccc1)c1cc(F)ccc1F` (stereo not shown) [Example 297, 1-[3-[(4-Chlorophenyl)sulfonyl]-3-(2,5-difluorophenyl)propyl]-1H-pyrrole], with 108 to 113 °C; and `Cc1ccc(C(c2cc(F)ccc2F)S(=O)(=O)c2ccc(Cl)cc2)nc1` (stereo not shown) [Example 137, 2-[[(4-Chlorophenyl)sulfonyl]-(2,5-difluorophenyl)methyl]-5-methylpyridine], with 159 to 160 °C; and `O=S(=O)(/C(=C/c1ccccc1)c1cc(F)ccc1F)c1ccc(Cl)cc1` [Example 6, E-2-[1-[(4-Chlorophenyl)sulfonyl]-2-phenylethenyl]-1,4-difluorobenzene], with 144.5 to 145 °C.
With `CS(=O)(=O)CCCCC(c1cnco1)S(=O)(=O)c1ccc(Cl)cc1` (stereo not shown) [Example 118, 5-[1-(4-Chlorophenylsulfonyl)-5-(methylsulfonyl)pentyl]oxazole] the figure was 164 to 166 °C; with `O=S(=O)(c1ccc(Cl)cc1)C(CCN1CCCCC1)c1cc(F)ccc1F` (stereo not shown) [Example 320, 1-[3-(4-Chlorophenylsulfonyl)-3-(2,5-difluorophenyl)propyl]piperidine], 106 to 107 °C; with `O=C(c1cccnc1)N1CCC(c2cc(F)ccc2F)(S(=O)(=O)c2ccc(Cl)cc2)CC1` [Example 265, [4-[(4-Chlorophenyl)sulfonyl]-4-(2,5-difluorophenyl)piperidino](3-pyridyl)methanone], 119 to 124 °C.
The molecule `O=S(=O)(c1ccc(Cl)cc1)C(c1ccncc1)C1CCCC1` (stereo not shown) [Example 121, 4-[(4-Chlorophenylsulfonyl)(cyclopentyl)methyl]pyridine] showed a melting point of 133 to 135 °C.
Molecule `CS(=O)(=O)CCCCC(c1ccncc1)S(=O)(=O)c1ccc(Cl)cc1` (stereo not shown) [Example 74, 4-[1-[(4-Chlorophenyl)sulfonyl]-5-(methylsulfonyl)pentyl]pyridine] returned a melting point of 181 to 182 °C.
With `O=S(=O)(c1ccc(Cl)cc1)C(CCO)c1cc(F)ccc1F` (stereo not shown) [Example 207, 3-[(4-Chlorophenyl)sulfonyl]-3-(2,5-difluorophenyl)-1-propanol] the figure was 147 to 149 °C.
`CS(=O)(=O)CCCCC(c1ccccc1)S(=O)(=O)c1ccc(Cl)cc1` (stereo not shown) [Example 51, 1-Chloro-4-(5-methylsulfonyl-1-phenylpentyl)sulfonylbenzene] yielded a melting point of 151 to 152 °C.
In turn, `O=S(=O)(c1ccc(Cl)cc1)C(CCCCc1ccccc1)c1cc(F)ccc1F` (stereo not shown) [Example 313, 2-[1-(4-Chlorophenylsulfonyl)-5-phenylpentyl]-1,4-difluorobenzene] returned a melting point of 88 to 90 °C.
With `COc1ccc(CCC(c2cc(F)ccc2F)S(=O)(=O)c2ccc(Cl)cc2)cc1` (stereo not shown) [Example 308, 2-[1-(4-Chlorophenylsulfonyl)-3-(4-methoxyphenyl)propyl]-1,4-difluorobenzene], the melting point was 118 to 120 °C.
Then `Cl.O=S(=O)(c1ccc(Cl)cc1)C(CCNCCO)c1cc(F)ccc1F` (stereo not shown), with 216 to 220 °C; and `O=S(=O)(c1ccc(Cl)cc1)C(c1cc(F)ccc1F)c1cc(Cl)ncc1Cl` (stereo not shown) (hydrate or solvate) [Example 345, 2,5-Dichloro-4-[(4-chlorophenylsulfonyl)-(2,5-difluorophenyl)methyl]pyridine 0.5 hydrate], with 147 to 148 °C.
With `CS(=O)(=O)CCCCC(c1ccc(F)c(F)c1)S(=O)(=O)c1ccc(Cl)cc1` (stereo not shown) [Example 76, 4-[1-(4-Chlorophenylsulfonyl)-5-(methylsulfonyl)pentyl]-1,2-difluorobenzene] the figure was 122 to 124 °C; with `Fc1ccc(F)c(C(Sc2ccc(Cl)cc2)c2ccncc2Cl)c1` (stereo not shown) [Example 341, 3-Chloro-4-[(4-chlorophenylthio)-(2,5-difluorophenyl)methyl]pyridine], 70 to 72 °C; with `Cn1c(Cl)cnc1C(c1cc(F)ccc1F)S(=O)(=O)c1ccc(Cl)cc1` (stereo not shown) [Example 151, 2-[[(4-Chlorophenyl)sulfonyl]-(2,5-difluorophenyl)methyl]-1-methyl-5-chloro-1H-imidazole], 179 to 180 °C.
With `CC(=O)N1CCC(c2cc(F)ccc2F)(S(=O)(=O)c2ccc(Cl)cc2)CC1` [Example 263, 1-[4-[(4-Chlorophenyl)sulfonyl]-4-(2,5-difluorophenyl)piperidino]-1-ethanone] the figure was 159 to 160 °C.
